Legend:
[1] = tested on: HEK293 cells; test: EGF-stimulated ERK1/2 activation, phospho-ERK1/2 immunoblot
[2] = target: T1, SHP2 (Homo sapiens, UniProt Q06124); test: SHP2-catalyzed pNPP hydrolysis inhibition; type: biochemical; conditions: ratio of IC50 values
T1 sequence (Q06124 262-528): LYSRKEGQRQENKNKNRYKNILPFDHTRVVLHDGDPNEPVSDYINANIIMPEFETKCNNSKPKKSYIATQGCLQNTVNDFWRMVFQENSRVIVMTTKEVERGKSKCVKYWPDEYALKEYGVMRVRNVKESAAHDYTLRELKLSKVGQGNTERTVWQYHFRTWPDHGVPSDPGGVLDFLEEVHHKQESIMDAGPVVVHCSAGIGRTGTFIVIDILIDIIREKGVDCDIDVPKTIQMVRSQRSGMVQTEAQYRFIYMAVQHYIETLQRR

| Structure (SMILES) | EGF-induced ERK1/2 activation, dose dependence ([1]; 0 to 20 μM, EGF stimulation 60 min) | initial transient phase of ERK1/2 activation (phospho-ERK1/2) ([1]; 10 μM, 3 h pre-incubation, 5-15 min post EGF 2 ng/mL) | sustained phase of ERK1/2 activation (phospho-ERK1/2) ([1]; 10 μM, 3 h pre-incubation, 60 min post EGF 2 ng/mL) | fold change of SHP2 IC50 relative to 9 [2] [fold] | pERK1/2 level normalized by total ERK1/2 ([1]; 20 μM, EGF stimulation 60 min) |
| --- | --- | --- | --- | --- | --- |
| Cn1c(-c2ccccc2)c(-c2cn(CCC(=O)Nc3ccc(-c4ccccc4)cc3)nn2)c2cc(C(=O)O)c(O)cc21 [Compound 9, 3-(1-(3-(biphenyl-4-ylamino)-3-oxopropyl)-1H-1,2,3-triazol-4-yl)-6-hydroxy-1-methyl-2-phenyl-1H-indole-5-carboxylic acid] | concentration-dependent inhibition | not the initial transient phase | strongly inhibits |  |  |
| Cn1c(-c2ccccc2)c(-c2cn(CC(=O)Nc3ccc(-c4ccccc4)cc3)nn2)c2cc(C(=O)O)c(O)cc21 [Compound 9a, 3-(1-(2-(Biphenyl-4-ylamino)-2-oxoethyl)-1H-1,2,3-triazol-4-yl)-6-hydroxy-1-methyl-2-phenyl-1H-indole-5-carboxylic acid] |  |  |  | ~2 |  |
| Cn1c(-c2ccccc2)c(-c2cn(CCCC(=O)Nc3ccc(-c4ccccc4)cc3)nn2)c2cc(C(=O)O)c(O)cc21 [Compound 9b, 3-(1-(4-(biphenyl-4-ylamino)-4-oxobutyl)-1H-1,2,3-triazol-4-yl)-6-hydroxy-1-methyl-2-phenyl-1H-indole-5-carboxylic acid] |  |  |  | ~2 |  |
| Cn1c(-c2ccccc2)c(-c2cn(CCC(=O)Nc3ccccc3)nn2)c2cc(C(=O)O)c(O)cc21 [Compound 14, 6-Hydroxy-1-methyl-3-(1-(3-oxo-3-(phenylamino)propyl)-1H-1,2,3-triazol-4yl)-2-phenyl-1H-indole-5-carboxylic acid] |  |  |  | 15.6 | no appreciable change |

Source: PMC2842125 (Journal of medicinal chemistry, 2010)
